Experiments:
Assay type in all cases: in vivo
[1] = tested on: upland rice (Oryza sp., var. Tebonnet, RICE); experiment: Pre-emerge test, crop safety; conditions: rating scale 0-100, 14 days after application
In short: (§1)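 Herbicidal damage is scored 0 (none) to 100 (complete plant death) two weeks after a simulated field spray. Rates span 15–1000 g ai/ha, delivered in acetone at 187 l/ha. For post-emergence treatments, plants have 2–3 leaves and the spray carries 0.25% v/v non-ionic surfactant.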

[2] = tested on: field corn (Zea mays L., var. Dekalb 535, CORN); experiment: Pre-emerge test, crop safety; conditions: rating scale 0-100, 14 days after application
In short: as §1

[3] = tested on: large crabgrass (Digitaria sanguinalis, DIGSA); experiment: Pre-emerge test, greenhouse herbicide activity screening; conditions: rating scale 0-100, 14 days after application
In short: (§2)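 Compounds in acetone were track-sprayed at 187 l/ha, 15–1000 g ai/ha, onto sandy loam pots. Pre-emerge seeds were sown one day before spraying, with surface watering afterwards. Post-emerge plants were at the 2–3 leaf stage and sprayed with 0.25% v/v non-ionic surfactant. Injury was rated 0–100 at 14 days.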

[4] = tested on: ivyleaf morningglory (Ipomoea hederacea, IPOHE); experiment: as above; conditions: rating scale 0-100, 14 days after application
In short: as §2

[5] = tested on: barnyardgrass (Echinochloa crus-galli, ECHCG); experiment: as above; conditions: rating scale 0-100, 14 days after application
In short: as §2

[6] = tested on: sicklepod (Cassia obtusifolia, CASOB); experiment: as above; conditions: rating scale 0-100, 14 days after application
In short: as §2

[7] = tested on: green foxtail (Setaria viridis, SETVI); experiment: as above; conditions: rating scale 0-100, 14 days after application
In short: as §2

[8] = tested on: lambsquarters (Chenopodium album, CHEAL); experiment: as above; conditions: rating scale 0-100, 14 days after application
In short: as §2

[9] = tested on: velvetleaf (Abutilon theophrasti, ABUTH); experiment: as above; conditions: rating scale 0-100, 14 days after application
In short: as §2

[10] = tested on: johnsongrass (Sorghum halepense, SORHA); experiment: as above; conditions: rating scale 0-100, 14 days after application
In short: as §2

[11] = tested on: upland rice (Oryza sp., var. Tebonnet, RICE); experiment: Post-emerge test, crop safety; conditions: rating scale 0-100 (0 no damage, 100 complete death), 14 days after application
In short: as §2

[12] = tested on: field corn (Zea mays L., var. Dekalb 535, CORN); experiment: Post-emerge test, crop safety; conditions: rating scale 0-100 (0 no damage, 100 complete death), 14 days after application
In short: as §2

[13] = tested on: large crabgrass (Digitaria sanguinalis, DIGSA); experiment: Post-emerge test, greenhouse herbicide activity screening; conditions: rating scale 0-100 (0 no damage, 100 complete death), 14 days after application
In short: (§3)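 Each test used a mechanized track sprayer delivering 187 l/ha of acetone solution at 15–1000 g ai/ha. Post-emerge foliage at 2–3 leaves was treated with added 0.25% v/v non-ionic surfactant and bottom-watered only. Injury was assessed on day 14, where 100 means total kill.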

[14] = tested on: redroot pigweed (Amaranthus retroflexus, AMARE); experiment: as above; conditions: rating scale 0-100 (0 no damage, 100 complete death), 14 days after application
In short: as §3

[15] = tested on: ivyleaf morningglory (Ipomoea hederacea, IPOHE); experiment: as above; conditions: rating scale 0-100 (0 no damage, 100 complete death), 14 days after application
In short: as §3

[16] = tested on: barnyardgrass (Echinochloa crus-galli, ECHCG); experiment: as above; conditions: rating scale 0-100 (0 no damage, 100 complete death), 14 days after application
In short: as §3

[17] = tested on: sicklepod (Cassia obtusifolia, CASOB); experiment: as above; conditions: rating scale 0-100 (0 no damage, 100 complete death), 14 days after application
In short: as §3

[18] = tested on: green foxtail (Setaria viridis, SETVI); experiment: as above; conditions: rating scale 0-100 (0 no damage, 100 complete death), 14 days after application
In short: as §3

[19] = tested on: common ragweed (Ambrosia artemisizfolia L., AMBEL); experiment: as above; conditions: rating scale 0-100 (0 no damage, 100 complete death), 14 days after application
In short: as §3

[20] = tested on: lambsquarters (Chenopodium album, CHEAL); experiment: as above; conditions: rating scale 0-100 (0 no damage, 100 complete death), 14 days after application
In short: as §3

[21] = tested on: velvetleaf (Abutilon theophrasti, ABUTH); experiment: as above; conditions: rating scale 0-100 (0 no damage, 100 complete death), 14 days after application
In short: as §3

[22] = tested on: johnsongrass (Sorghum halepense, SORHA); experiment: as above; conditions: rating scale 0-100 (0 no damage, 100 complete death), 14 days after application
In short: as §3

[23] = tested on: redroot pigweed (Amaranthus retroflexus, AMARE); experiment: Pre-emerge test, greenhouse herbicide activity screening; conditions: rating scale 0-100, 14 days after application
In short: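 Sandy loam pots; pre-emerge: sown 1 d pre-spray, surface-watered after, then bottom-watered. Post-emerge: sown 8–21 d before, 2–3 leaf stage, + 0.25% v/v NIS, bottom-watered. Acetone, 187 l/ha track spray, 15–1000 g ai/ha. 0–100 injury score, day 14.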

COCCOC(=O)C(C)(Cl)Cc1c(OC)c(Cl)cc(F)c1-n1c(=O)cc(C(F)(F)F)n(C)c1=O (stereo not shown) [14-47]
70: Pre-emerge phytotoxicity rating, crop damage RICE ([1]; 250 g ai/ha) | Post-emerge Herbicidal Activity, phytotoxicity rating CASOB ([17]; Rate 250 g ai/ha) | Post-emerge Herbicidal Activity, phytotoxicity rating SORHA ([22]; Rate 63 g ai/ha)
80: Post-emerge Herbicidal Activity, phytotoxicity rating IPOHE ([15]; Rate 63 g ai/ha) | Post-emerge Herbicidal Activity, phytotoxicity rating SORHA ([22]; Rate 250 g ai/ha)
90: Post-emerge Herbicidal Activity, phytotoxicity rating SETVI ([18]; Rate 63 g ai/ha)
100: Pre-emerge herbicidal activity, phytotoxicity rating DIGSA ([3]; 250 g ai/ha) | Pre-emerge herbicidal activity, phytotoxicity rating CHEAL ([8]; 63 g ai/ha) | Pre-emerge herbicidal activity, phytotoxicity rating CHEAL ([8]; 250 g ai/ha) | Pre-emerge herbicidal activity, phytotoxicity rating ABUTH ([9]; 63 g ai/ha) | Pre-emerge herbicidal activity, phytotoxicity rating ABUTH ([9]; 250 g ai/ha) | Post-emerge phytotoxicity rating RICE (crop damage) ([11]; Rate 63 g ai/ha) | Post-emerge phytotoxicity rating RICE (crop damage) ([11]; Rate 250 g ai/ha) | Post-emerge phytotoxicity rating CORN (crop damage) ([12]; Rate 250 g ai/ha) | Post-emerge Herbicidal Activity, phytotoxicity rating DIGSA ([13]; Rate 250 g ai/ha) | Post-emerge Herbicidal Activity, phytotoxicity rating AMARE ([14]; Rate 63 g ai/ha) | Post-emerge Herbicidal Activity, phytotoxicity rating AMARE ([14]; Rate 250 g ai/ha) | Post-emerge Herbicidal Activity, phytotoxicity rating IPOHE ([15]; Rate 250 g ai/ha) | Post-emerge Herbicidal Activity, phytotoxicity rating ECHCG ([16]; Rate 63 g ai/ha) | Post-emerge Herbicidal Activity, phytotoxicity rating ECHCG ([16]; Rate 250 g ai/ha) | Post-emerge Herbicidal Activity, phytotoxicity rating SETVI ([18]; Rate 250 g ai/ha) | Post-emerge Herbicidal Activity, phytotoxicity rating AMBEL ([19]; Rate 63 g ai/ha) | Post-emerge Herbicidal Activity, phytotoxicity rating AMBEL ([19]; Rate 250 g ai/ha) | Post-emerge Herbicidal Activity, phytotoxicity rating CHEAL ([20]; Rate 63 g ai/ha) | Post-emerge Herbicidal Activity, phytotoxicity rating CHEAL ([20]; Rate 250 g ai/ha) | Post-emerge Herbicidal Activity, phytotoxicity rating ABUTH ([21]; Rate 63 g ai/ha) | Post-emerge Herbicidal Activity, phytotoxicity rating ABUTH ([21]; Rate 250 g ai/ha) | Pre-emerge herbicidal activity, phytotoxicity rating AMARE ([23]; 63 g ai/ha) | Pre-emerge herbicidal activity, phytotoxicity rating AMARE ([23]; 250 g ai/ha)
99: Pre-emerge herbicidal activity, phytotoxicity rating SETVI ([7]; 250 g ai/ha)
40: Post-emerge phytotoxicity rating CORN (crop damage) ([12]; Rate 63 g ai/ha)
30: Pre-emerge herbicidal activity, phytotoxicity rating DIGSA ([3]; 63 g ai/ha)
20: Pre-emerge herbicidal activity, phytotoxicity rating SORHA ([10]; 250 g ai/ha)
0: Pre-emerge phytotoxicity rating, crop damage RICE ([1]; 63 g ai/ha) | Pre-emerge phytotoxicity rating, crop damage CORN ([2]; 63 g ai/ha) | Pre-emerge phytotoxicity rating, crop damage CORN ([2]; 250 g ai/ha) | Pre-emerge herbicidal activity, phytotoxicity rating IPOHE ([4]; 63 g ai/ha) | Pre-emerge herbicidal activity, phytotoxicity rating IPOHE ([4]; 250 g ai/ha) | Pre-emerge herbicidal activity, phytotoxicity rating ECHCG ([5]; 63 g ai/ha) | Pre-emerge herbicidal activity, phytotoxicity rating CASOB ([6]; 63 g ai/ha) | Pre-emerge herbicidal activity, phytotoxicity rating CASOB ([6]; 250 g ai/ha) | Pre-emerge herbicidal activity, phytotoxicity rating SETVI ([7]; 63 g ai/ha) | Pre-emerge herbicidal activity, phytotoxicity rating SORHA ([10]; 63 g ai/ha) | Post-emerge Herbicidal Activity, phytotoxicity rating CASOB ([17]; Rate 63 g ai/ha)
95: Pre-emerge herbicidal activity, phytotoxicity rating ECHCG ([5]; 250 g ai/ha) | Post-emerge Herbicidal Activity, phytotoxicity rating DIGSA ([13]; Rate 63 g ai/ha)
